{
  "source": "patent US11974988B2",
  "about": "“Neuroprotective compositions and methods of using the same” (The Board of Supervisors of Louisiana State Univer …, priority 2018, dated 2024)",
  "key": {"[1]": {"test_system": "activity-regulated Gln/MeAIB transport (SNAT activity) in hippocampal neurons", "assay": "Activity-regulated (spontaneous, 4-AP- or K+-stimulated) [14C]-MeAIB transport in primary hippocampal neurons", "type": "cell-based, rat", "set-up": "block of transport activity: dose or concentration left out as unconfirmed", "settings": "for inhibition of spontaneous activity-regulated 14C-MeAIB transport, in words: screens, 10 μM, GABA 2 mM; for inhibition at 10 µM / IC50: Rattus norvegicus, Hippocampal neuron; for inhibition at 10 µM: read-out: block / inhibition of transport activity; for potency to inhibit activity-regulated MeAIB transport relative to a comparator, in words: spontaneous and 4-AP stimulated transport"}, "[2]": {"test_system": "SNAT1 or SNAT2", "settings": "cited from earlier work"}, "[3]": {"test_system": "activity-regulated Gln/MeAIB transport (SNAT activity) in hippocampal neurons", "settings": "read-out: Km of the activity-regulated Gln/MeAIB transport system; cited from earlier work"}, "[4]": {"test_system": "KCa2 and NaV channels", "settings": "cited from earlier work"}, "[5]": {"test_system": "hippocampal neurons of KA-treated rats", "assay": "KA-induced status epilepticus model, hippocampal neurodegeneration (fluoro-jade B, NeuN)", "type": "in vivo, rat", "settings": "for neuroprotection against Glu-induced excitotoxicity in the KA model of TLE: rat, in vivo", "description": "(§1) In Aim 3, we treat male and female rats with the ‘best’ SKA-41 derivatives before and after injection of kainic acid (KA). The KA-induced status epilepticus (SE) model is a well-validated model of temporal lobe epilepsy (TLE), the major form of human epilepsy. The model allows studying the different stages between SE and the development of TLE including SE, the acute and latent stages of epileptogenesis and chronic epilepsy. The excitotoxin KA causes excessive Glu release in the hippocampus and selective destruction of inhibitory SOM interneurons in the hilus region of the dentate gyrus (DG) and loss of pyramidal neurons in the CA3 (esp), and also CA1 regions. We scaled up synthesis of SKA-41, 219, and SKA-378. The identity of the compounds was confirmed by ^1H- and ^13C-NMR and high-resolution mass spectrometry. Compound purity is determined by HPLC and no compounds with less then 98% purity were used. […] Rats were processed for immunohistochemistry 3 days after KA administration. As expected, we find that KA treatment induces significant neural damage (green cells) in the CA3 pyramidal neuron subfield and in neurons in the hilus (FIG. 20 Panel A), which are SOM containing GABAergic interneurons (not shown). Fluoro jade B is a high affinity fluorescent marker used for the localization of neuronal degeneration. […] In studies, we have also administered SKA-378 (30 mg/kg) one hr after the onset of stage IV seizures (SE), followed by another injection at 4 hr post SE and then once each day for 3 days. We find that SKA-378 is also neuroprotective under these conditions.\nas §1, with “with” for “with the ‘best’”, “(esp)” for “(esp),”, “were” for “was”, “We” for “As expected, we”, “23” for “20”, “Fluoro-jade” for “Fluoro jade”"}, "[6]": {"assay": "Max. solubility (Table 1)", "type": "physicochemical"}, "[7]": {"target": "T1, NaV1.2 (Mus musculus, UniProt B1AWN6)", "T1 construct": "N1E-115 cells that constitutively express NaV1.2; endogenous in cells; host or cells: N1E-115 mouse neuroblastoma cells", "T1 sequence (B1AWN6 whole entry)": "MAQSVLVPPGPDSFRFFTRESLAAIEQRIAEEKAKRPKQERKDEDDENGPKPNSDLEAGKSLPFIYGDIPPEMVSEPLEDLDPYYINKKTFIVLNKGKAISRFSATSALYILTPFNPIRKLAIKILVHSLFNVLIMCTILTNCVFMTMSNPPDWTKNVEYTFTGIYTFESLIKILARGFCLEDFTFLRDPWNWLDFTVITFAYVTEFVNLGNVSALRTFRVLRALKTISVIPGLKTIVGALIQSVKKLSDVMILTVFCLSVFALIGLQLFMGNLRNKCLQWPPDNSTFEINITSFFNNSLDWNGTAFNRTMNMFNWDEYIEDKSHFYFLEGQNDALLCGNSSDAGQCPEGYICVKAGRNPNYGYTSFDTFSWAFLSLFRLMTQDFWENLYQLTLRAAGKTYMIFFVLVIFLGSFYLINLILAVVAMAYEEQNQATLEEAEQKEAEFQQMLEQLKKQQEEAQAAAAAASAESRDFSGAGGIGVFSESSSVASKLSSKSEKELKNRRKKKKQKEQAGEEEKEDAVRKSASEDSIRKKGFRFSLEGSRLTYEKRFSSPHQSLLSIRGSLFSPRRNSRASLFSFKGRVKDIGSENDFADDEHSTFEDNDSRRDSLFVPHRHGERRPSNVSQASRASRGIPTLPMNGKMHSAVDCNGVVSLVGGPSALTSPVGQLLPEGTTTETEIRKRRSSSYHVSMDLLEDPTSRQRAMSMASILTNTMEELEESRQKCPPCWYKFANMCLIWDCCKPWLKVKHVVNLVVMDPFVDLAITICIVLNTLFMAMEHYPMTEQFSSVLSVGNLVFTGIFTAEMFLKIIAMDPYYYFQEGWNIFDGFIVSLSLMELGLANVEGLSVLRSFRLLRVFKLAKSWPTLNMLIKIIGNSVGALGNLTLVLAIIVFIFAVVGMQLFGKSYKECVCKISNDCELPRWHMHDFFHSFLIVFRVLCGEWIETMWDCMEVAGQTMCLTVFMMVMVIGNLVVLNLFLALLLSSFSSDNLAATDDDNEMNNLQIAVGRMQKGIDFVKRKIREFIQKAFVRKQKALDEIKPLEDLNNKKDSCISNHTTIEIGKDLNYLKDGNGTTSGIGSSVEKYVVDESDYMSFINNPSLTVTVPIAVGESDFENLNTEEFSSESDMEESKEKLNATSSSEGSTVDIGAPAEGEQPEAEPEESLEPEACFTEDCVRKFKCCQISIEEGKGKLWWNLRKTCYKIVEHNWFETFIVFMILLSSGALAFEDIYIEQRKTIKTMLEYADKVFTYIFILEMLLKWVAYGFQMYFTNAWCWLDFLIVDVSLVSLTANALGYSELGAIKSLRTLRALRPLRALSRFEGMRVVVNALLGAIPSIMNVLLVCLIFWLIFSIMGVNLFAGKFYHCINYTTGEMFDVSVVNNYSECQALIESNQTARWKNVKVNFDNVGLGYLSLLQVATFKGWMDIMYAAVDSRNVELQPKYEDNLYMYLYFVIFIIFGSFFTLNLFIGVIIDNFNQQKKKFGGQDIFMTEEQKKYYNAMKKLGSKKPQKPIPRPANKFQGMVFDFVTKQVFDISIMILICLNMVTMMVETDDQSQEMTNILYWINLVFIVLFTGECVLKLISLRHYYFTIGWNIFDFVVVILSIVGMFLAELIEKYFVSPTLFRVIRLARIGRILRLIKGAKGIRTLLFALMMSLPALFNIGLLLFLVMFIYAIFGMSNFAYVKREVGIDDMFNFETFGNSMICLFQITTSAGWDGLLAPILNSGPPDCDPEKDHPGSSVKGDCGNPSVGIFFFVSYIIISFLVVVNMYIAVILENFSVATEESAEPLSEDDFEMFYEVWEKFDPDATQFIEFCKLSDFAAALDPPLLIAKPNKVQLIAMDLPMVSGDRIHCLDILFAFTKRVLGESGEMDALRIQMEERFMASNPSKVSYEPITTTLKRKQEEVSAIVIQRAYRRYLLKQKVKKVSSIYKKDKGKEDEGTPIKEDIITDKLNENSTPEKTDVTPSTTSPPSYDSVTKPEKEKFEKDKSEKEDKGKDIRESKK", "assay": "NaV currents recorded by whole-cell patch clamp from N1E-115 neuroblastoma cells expressing NaV1.2", "type": "cell-based", "description": "Cells were held at −80 mV and current elicited by a 0 mV depolarization stepped from a −120 mV conditioning pulse at 0.1 Hz.\nCells transiently (or stably) expressing voltage-gated Na^+ or K^+ channels will be subjected to electrophysiological recording using the whole-cell patch-clamp technique. We will use HEK-293 cell lines stably expressing hNaV1.1, hNaV1.5, hNaV1/7, hNaV1.4, and hKV2.1. […] All cells will be voltage clamped to a holding potential of −90 mV, otherwise specified if held at −120 mV in the case of NaV1.2 use-dependence recording. Na^+ currents will be elicited by 30-ms pulse to 0 mV from −90 mV applied every 10 s. KV2.1 currents will be elicited by 200-ms voltage steps from −90 to 40 mV applied every 10 s."}, "[8]": {"test_system": "plasma protein", "assay": "Plasma protein binding", "type": "in vitro ADME, rat", "description": "Synthesis of SKA-41, SKA-190, SKA-219 and SKA-220 and will validate plasma protein binding with rat plasma using equilibrium dialysis so that we can validate protein binding."}, "[9]": {"target": "protein Kinase C", "settings": "read-out: IC50, inhibition of protein Kinase C; cited from earlier work"}, "[10]": {"test_system": "NaV channels", "settings": "read-out: IC50s, inhibition of NaV channels; cited from earlier work"}, "[11]": {"test_system": "N- and P/Q-type Ca2+ channels", "settings": "read-out: IC50, block of N- and P/Q-type Ca2+ channels; cited from earlier work"}, "[12]": {"test_system": "delayed-rectifier K+ channels and two-pore K+ channels", "settings": "cited from earlier work"}, "[13]": {"test_system": "small-conductance Ca2+-activated K+ channels", "settings": "read-out: EC50, activation of small-conductance Ca2+-activated K+ channels; cited from earlier work"}, "[14]": {"settings": "4-AP-stimulated (depolarization) [14C]-MeAIB uptake, DIV16, n in brackets, read-out: SNAT Activity IC50, 4-AP"}, "[15]": {"settings": "spontaneous [14C]-MeAIB uptake, DIV 19, n in brackets, read-out: SNAT Activity IC50, Spont"}},
  "note": "“And” between values parts separate entries of the source, which are not always exact repeats. Identical values can stand only once. “Also recorded” adds a separate entry of the source. Like-named read-outs stand apart in the source and are kept apart here.",
  "data": [
    {"smiles": "CNC(C)(C)C(=O)O", "note": "[MeAIB, α-methylaminoisobutyric acid, reference compound]", "values": [
      {"measurement": "relative affinity for PMA-induced K+-activity-stimulated Gln/MeAIB transport activity", "setting": "[1]; PMA 10 min before KCl 60 mM", "value": "~35", "unit": "µM"},
      {"measurement": "affinity of SNAT1 or SNAT2 for MeAIB", "setting": "[2]", "value": "> 0.5", "unit": "mM"},
      {"measurement": "Km", "setting": "[3]", "value": 30, "unit": "µM"}
    ]},
    {"smiles": "Nc1nc2ccc(Cc3ccccc3)cc2s1", "note": "[SKA-7]", "values": [
      {"measurement": "established ion-channel activity", "setting": "[4]", "value": "NaV blockers"},
      {"measurement": "inhibition of spontaneous activity-regulated 14C-MeAIB transport, in words", "setting": "[1]", "value": "active"}
    ]},
    {"smiles": "Nc1nc2ccc(OC(F)(F)Cl)cc2s1", "note": "[SKA-11, reference compound]", "values": [
      {"measurement": "established ion-channel activity", "setting": "[4]", "value": "mixed NaV blockers and KCa activators"},
      {"measurement": "inhibition of spontaneous activity-regulated 14C-MeAIB transport, in words", "setting": "[1]", "value": "active"}
    ]},
    {"smiles": "Nc1nc2ccc(SC(F)(F)F)cc2s1", "note": "[SKA-19, 2-amino-6-trifluoromethylthio-benzothiazole, reference compound]", "values": [
      {"measurement": "established ion-channel activity", "setting": "[4]", "value": "mixed NaV blockers and KCa activators"},
      {"measurement": "inhibition at 10 µM", "setting": "[1]", "value": "~90", "unit": "%"},
      {"measurement": "inhibition of spontaneous activity-regulated 14C-MeAIB transport, in words", "setting": "[1]", "value": "active"}
    ]},
    {"smiles": "Nc1nc2ccc3ccccc3c2s1", "note": "[SKA-45]", "values": [
      {"measurement": "established ion-channel activity", "setting": "[4]", "value": "KCa2 activators"},
      {"measurement": "inhibition of spontaneous activity-regulated 14C-MeAIB transport, in words", "setting": "[1]", "value": "active"}
    ]},
    {"smiles": "Nc1nc(-c2cccc3ccccc23)c(Br)s1", "note": "[SKA-219, 5-Bromo-4-(1-naphthalenyl)thiazol-2-amine]", "values": [
      {"measurement": "neuroprotection against Glu-induced excitotoxicity in the KA model of TLE", "setting": "[5]", "value": "neuroprotective"},
      {"measurement": "block of transport activity", "setting": "[1]", "value": 90, "unit": "%"},
      {"measurement": "inhibition at 10 µM", "setting": "[1]", "value": 90, "unit": "%"},
      {"measurement": "IC50", "setting": "[1]; hippocampal neurons in vitro, 14C-MeAIB 20 μM, read-out: IC50 to inhibit activity-regulated Gln/MeAIB transport", "value": "~2", "unit": "µM"},
      {"measurement": "Active (annotation beside the compound name: active vs inactive derivatives)", "setting": "[1]; Table 1: SKA-41, and active and inactive derivatives", "value": "SKA-219 Active"},
      {"measurement": "inhibition of spontaneous activity-regulated 14C-MeAIB transport, in words", "setting": "[1]", "value": "blocked spontaneous transport activity; also recorded: inhibited spontaneous transport activity"},
      {"measurement": "potency to inhibit activity-regulated MeAIB transport relative to a comparator, in words", "setting": "[1]", "value": "as potent as riluzole"},
      {"measurement": "solubility", "setting": "[6]", "value": 25, "unit": "µM"},
      {"measurement": "less potent to block NaV channels than activity-regulated Gln/MeAIB transport", "setting": "[7]", "value": "> 10", "unit": "×"},
      {"measurement": "selectivity to inhibit activity-regulated Gln/MeAIB transport over NaV channels", "setting": "[7]", "value": "> 10 fold and 10 fold and ~15 fold"},
      {"measurement": "IC50", "setting": "[7]; N1E-115 cells, n=12, read-out: IC50 to inhibit NaV1.2", "value": 30, "unit": "µM"},
      {"measurement": "EC50", "setting": "[7]; N1E-115 cells, read-out: EC50 concentration to inhibit NaV1.2", "value": "~30", "unit": "µM"}
    ]},
    {"smiles": "Nc1nc(-c2cccc3ccccc23)c(Cl)s1", "note": "[SKA-378, 5-Chloro-4-(naphthalen-1-yl)thiazol-2-amine]", "values": [
      {"measurement": "neuronal degeneration by fluoro-jade B staining in hippocampus", "setting": "[5]; 30 mg/kg 30 min before and 30 min after first KA (5 mg/kg/hr x 2 hr i.p.), 3 days after KA", "value": "prevents fluoro-jade B staining in all regions of the hippocampus; also recorded: Neurodegeneration is not observed"},
      {"measurement": "neuroprotection when given after onset of SE", "setting": "[5]; 30 mg/kg 1 hr after onset of stage IV seizures, at 4 hr post SE, then once daily for 3 days", "value": "neuroprotective"},
      {"measurement": "NeuN staining: disorganization and neuron loss in CA3 and hilus", "setting": "[5]; 30 mg/kg pretreatment, 3 days after KA", "value": "prevents the disorganization and cell loss"},
      {"measurement": "neuroprotection against Glu-induced excitotoxicity in the KA model of TLE", "setting": "[5]", "value": "neuroprotective"},
      {"measurement": "potency to inhibit activity-regulated MeAIB transport relative to a comparator, in words", "setting": "[1]", "value": "as active as SKA-219 and SKA-220, respectively; also recorded: most potent"}
    ]},
    {"smiles": "Nc1nc(-c2cccc3ccccc23)c(Br)s1", "note": "[drawing 65]", "values": [
      {"measurement": "fold difference 4-AP IC50 over Spont IC50", "setting": "[1]", "value": 2.8, "unit": "x"},
      {"measurement": "IC50", "setting": "[1]; [14]", "value": 5.1, "unit": "µM"},
      {"measurement": "IC50", "setting": "[1]; [15]", "value": 1.8, "unit": "µM"},
      {"measurement": "IC50", "setting": "[7]; read-out: Selectivity IC50 Nav1.2", "value": 30, "unit": "µM"},
      {"measurement": "Plasma Protein", "setting": "[8]", "value": "> 98", "unit": "%"}
    ]},
    {"smiles": "Nc1nc(-c2ccc3ccccc3c2)c(Br)s1", "note": "[drawing 66]", "values": [
      {"measurement": "fold difference 4-AP IC50 over Spont IC50", "setting": "[1]", "value": 1.5, "unit": "x"},
      {"measurement": "IC50", "setting": "[1]; [14]", "value": 6.8, "unit": "µM"},
      {"measurement": "IC50", "setting": "[1]; [15]", "value": 4.4, "unit": "µM"},
      {"measurement": "Plasma Protein", "setting": "[8]", "value": "> 98", "unit": "%"}
    ]},
    {"smiles": "Nc1nc2ccc(OC(F)(F)F)cc2s1", "note": "[riluzole]", "values": [
      {"measurement": "IC50", "setting": "[9]", "value": "> 30", "unit": "µM"},
      {"measurement": "IC50", "setting": "[10]", "value": "1 to 500 µM and 1 to 50 µM"},
      {"measurement": "established ion-channel activity", "setting": "[4]", "value": "mixed NaV blockers and KCa activators"},
      {"measurement": "IC50", "setting": "[11]", "value": "> 40", "unit": "µM"},
      {"measurement": "IC50", "setting": "[12]", "value": "> 30", "unit": "µM"},
      {"measurement": "concentration inhibiting delayed-rectifier K+ channels and activating two-pore K+ channels", "setting": "[12]", "value": "30 to 100", "unit": "µM"},
      {"measurement": "EC50", "setting": "[13]", "value": "10 to 200 µM and 10 to 20 µM and > 20 µM"}
    ]}
  ]
}
